Laboratory results: US6436921B1, “Carbapenem derivatives and a preparation method thereof” (Korea Institute of Science and Technology, priority 1997, dated 2002)
Converted amounts (≈) assume the structure as drawn. Like-named read-outs stand apart in the source and are kept apart here.

What was measured:
[1] = molecular target: DHP-I (renal dehydropeptidase-I) (Homo sapiens, UniProt P16444); test: in vitro
Enterobacter cloacae P99 = test: Antibacterial activity test (agar dilution MIC); format: cell-based
Experimental: (§1) Gram-positive Streptococcus and Staphylococcus and Gram-negative Escherichia coli, Pseudomonas, Salmonella, Klebsiella and Enterobacter were selected for the test. After the cells were diluted and cultured in agar, the compounds of the present invention were treated to obtain the minimum inhibitory concentration in the units of μg/ml.

Escherichia coli TEM = test: Antibacterial activity test (agar dilution MIC); format: cell-based; conditions: for Minimum inhibitory concentration: Escherichia coli TEM, agar
Experimental: as §1

[2] = system: Streptococcus pyogenes 308A; test: Antibacterial activity test (agar dilution MIC); format: cell-based
Experimental: as §1

Escherichia coli DC2 = test: Antibacterial activity test (agar dilution MIC); format: cell-based
Experimental: as §1

[3] = system: Staphylococcus aureus 503; test: Antibacterial activity test (agar dilution MIC); format: cell-based; conditions: Staphylococcus aureus 503, agar
Experimental: as §1

[4] = system: Pseudomonas aeruginosa 1771M; test: Antibacterial activity test (agar dilution MIC); format: cell-based; conditions: Pseudomonas aeruginosa, 1771M, read-out: Minimum inhibitory concentration
Experimental: as §1

Klebsiella oxytoca 1082E = test: Antibacterial activity test (agar dilution MIC); format: cell-based
Experimental: as §1

Escherichia coli 078 [5] = test: Antibacterial activity test (agar dilution MIC); format: cell-based; conditions: Escherichia coli 078, agar
Experimental: as §1

[6] = system: Pseudomonas aeruginosa 1771; test: Antibacterial activity test (agar dilution MIC); format: cell-based; conditions: Pseudomonas aeruginosa 1771, agar
Experimental: as §1

[7] = system: Pseudomonas aeruginosa 1592E; test: Antibacterial activity test (agar dilution MIC); format: cell-based
Experimental: as §1

Escherichia coli DC0 = test: Antibacterial activity test (agar dilution MIC); format: cell-based
Experimental: as §1

[8] = system: Pseudomonas aeruginosa 9027; test: Antibacterial activity test (agar dilution MIC); format: cell-based; conditions: Pseudomonas aeruginosa 9027, agar
Experimental: as §1

[9] = system: Klebsiella aerogenes 1522E; test: Antibacterial activity test (agar dilution MIC); format: cell-based
Experimental: as §1

Escherichia coli 1507E = test: Antibacterial activity test (agar dilution MIC); format: cell-based
Experimental: as §1

[10] = system: Staphylococcus aureus 285; test: Antibacterial activity test (agar dilution MIC); format: cell-based; conditions: Staphylococcus aureus 285, agar
Experimental: as §1

[11] = system: Staphylococcus aureus SG511; test: Antibacterial activity test (agar dilution MIC); format: cell-based
Experimental: as §1

[12] = system: Streptococcus pyogenes 77A; test: Antibacterial activity test (agar dilution MIC); format: cell-based
Experimental: as §1

[13] = system: Enterobacter cloacae 1321E; test: Antibacterial activity test (agar dilution MIC); format: cell-based
Experimental: as §1

[14] = system: Streptococcus faecium MD8b; test: Antibacterial activity test (agar dilution MIC); format: cell-based
Experimental: as §1

Salmonella typhimurium = test: Antibacterial activity test (agar dilution MIC); format: cell-based
Experimental: as §1

Escherichia coli 078 [15] = test: PD50 test using mice; format: in vivo; design: PD50: unit not given beside the values
Description: (§2) This means that ⅓ of the amount of the compound 10 has the same effect as meropenem.
(§3) Streptococcus pyrogenes A 77 and Escherichia coli 078 were selected as gram-positive and gram-negative strains, respectively.

[16] = system: Streptococcus pyrogenes A 77; test: PD50 test using mice; format: in vivo; design: PD50: unit not given beside the values
Description: as §2, §3

[17] = Bioavailability test, subcutaneous injection to mice; format: in vivo
renal enzyme (DHP-I) = renal enzyme (DHP-I) (Homo sapiens, UniProt P16444); conditions: FIG. 1
renal enzyme (DHP-I), sequence (P16444 17-385): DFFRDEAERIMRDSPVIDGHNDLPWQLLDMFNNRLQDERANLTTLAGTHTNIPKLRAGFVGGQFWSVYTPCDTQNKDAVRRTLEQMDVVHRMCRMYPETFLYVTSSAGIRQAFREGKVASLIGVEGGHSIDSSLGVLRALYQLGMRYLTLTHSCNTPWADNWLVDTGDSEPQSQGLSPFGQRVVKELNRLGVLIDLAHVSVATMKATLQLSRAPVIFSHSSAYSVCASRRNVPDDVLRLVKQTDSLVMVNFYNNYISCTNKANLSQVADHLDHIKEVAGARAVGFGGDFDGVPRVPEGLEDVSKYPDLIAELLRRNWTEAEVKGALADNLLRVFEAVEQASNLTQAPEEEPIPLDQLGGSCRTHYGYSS

[18] = read-out: Minimum inhibitory concentration

DHP-I (renal dehydropeptidase-I), sequence (P16444 17-385): as above

Row | SMILES | Minimum inhibitory concentration (Enterobacter cloacae P99) | Minimum inhibitory concentration (Escherichia coli TEM) | Minimum inhibitory concentration [2] | Minimum inhibitory concentration (Escherichia coli DC2) | Minimum inhibitory concentration [3] | Minimum inhibitory concentration (Klebsiella oxytoca 1082E) | Minimum inhibitory concentration (Escherichia coli 078 [5]) | Minimum inhibitory concentration [6] | Minimum inhibitory concentration [7] | Minimum inhibitory concentration (Escherichia coli DC0) | Minimum inhibitory concentration [8] | Minimum inhibitory concentration [9] | Minimum inhibitory concentration (Escherichia coli 1507E) | Minimum inhibitory concentration [10] | Minimum inhibitory concentration [11] | Minimum inhibitory concentration [12] | Minimum inhibitory concentration [13] | Minimum inhibitory concentration [14] | Minimum inhibitory concentration (Salmonella typhimurium) | other results
1 | C[C@@H](O)[C@H]1C(=O)N2C(C(=O)O)=C(SCCN=CN)C[C@H]12 [imipenem, reference compound] |  |  |  |  |  |  |  |  |  |  |  |  |  |  |  |  |  |  |  | half-life ([1]; renal enzyme DHP-I): 30 min
2 | CNC(=O)CCNC(=O)[C@@H]1C[C@H](SC2=C(C(=O)O)N3C(=O)[C@H]([C@@H](C)O)[C@H]3[C@H]2C)CN1 [Compound 2] |  |  |  |  |  |  |  |  |  |  |  |  |  |  |  |  |  |  |  | MIC (Enterobacter cloacae P99; [18]): 0.049 µg/mL (≈ 0.111 µM); MIC (Escherichia coli TEM; Escherichia coli, read-out: Minimum inhibitory concentration): 0.025 µg/mL (≈ 0.0568 µM); MIC [2, 18]: 0.013 µg/mL (≈ 0.0295 µM); MIC (Escherichia coli DC2; [18]): 0.098 µg/mL (≈ 0.222 µM); MIC [3, 18]: 0.195 µg/mL (≈ 0.443 µM); MIC [4]: 0.391 µg/mL (≈ 0.888 µM); MIC (Klebsiella oxytoca 1082E; [18]): 0.098 µg/mL (≈ 0.222 µM); MIC (Escherichia coli 078 [5]; [18]): 0.049 µg/mL (≈ 0.111 µM); MIC [6, 18]: 0.781 µg/mL (≈ 1.77 µM); MIC [7, 18]: 0.781 µg/mL (≈ 1.77 µM); MIC (Escherichia coli DC0; [18]): 0.049 µg/mL (≈ 0.111 µM); MIC [8, 18]: 0.781 µg/mL (≈ 1.77 µM); MIC [9, 18]: 0.049 µg/mL (≈ 0.111 µM); MIC (Escherichia coli 1507E; [18]): 0.025 µg/mL (≈ 0.0568 µM); MIC [10, 18]: 0.781 µg/mL (≈ 1.77 µM); MIC [11, 18]: 0.391 µg/mL (≈ 0.888 µM); MIC [12, 18]: 0.013 µg/mL (≈ 0.0295 µM); MIC [13, 18]: 0.025 µg/mL (≈ 0.0568 µM); MIC ([14]; Enterococcus faecium, read-out: Minimum inhibitory concentration): 12.5 µg/mL (≈ 28.4 µM); MIC (Salmonella typhimurium; Salmonella enterica, read-out: Minimum inhibitory concentration): 0.049 µg/mL (≈ 0.111 µM)
3 | C[C@@H](O)[C@H]1C(=O)N2C(C(=O)O)=C(S[C@@H]3CN[C@H](C(=O)NCCS(N)(=O)=O)C3)[C@H](C)[C@H]12 [Compound 10] |  |  |  |  |  |  |  |  |  |  |  |  |  |  |  |  |  |  |  | PD50 (Escherichia coli 078 [15]; Escherichia coli 078): 0.47; times more efficient than meropenem (PD50 test) (Escherichia coli 078 [15]; gram-negative strain, versus meropenem): 3 times; PD50 ([16]; Streptococcus pyrogenes A 77): 2.31; times more efficient than meropenem (PD50 test) ([16]; gram-positive strain, versus meropenem): 3 times; half-life ([17]; mouse, in vivo, sc): 19.2 ± 2.4 min; AUC ([17]; mouse, in vivo, sc, AUC 0-3 hr): 11900 ± 1130 ng·h/mL; Cmax ([17]; mouse, in vivo, sc, read-out: Cmax): 16000 ± 960 ng/mL; Tmax ([17]; mouse, in vivo, sc, read-out: Tmax): ≤ 19.8 min; times as efficient as meropenem (bioavailability, Table 4) ([17]; versus meropenem): ca. 3 times; stability against DHP-I (in words) (renal enzyme (DHP-I)): a little more stable than meropenem against DHP-I and markedly more stable than imipenem; half-life [1]: > 300 min
4 | C[C@@H](O)[C@H]1C(=O)N2C(C(=O)O)=C(S[C@@H]3CN[C@H](C(=O)NCCC(=O)NCCO)C3)[C@H](C)[C@H]12 [Compound 3] | 0.049 µg/mL (≈ 0.104 µM) | 0.025 µg/mL (≈ 0.0531 µM) | 0.013 µg/mL (≈ 0.0276 µM) | 0.049 µg/mL (≈ 0.104 µM) | 0.195 µg/mL (≈ 0.414 µM) | 0.098 µg/mL (≈ 0.208 µM) | 0.025 µg/mL (≈ 0.0531 µM) | 1.563 µg/mL (≈ 3.32 µM) | 1.563 µg/mL (≈ 3.32 µM) | 0.049 µg/mL (≈ 0.104 µM) | 1.563 µg/mL (≈ 3.32 µM) | 0.049 µg/mL (≈ 0.104 µM) | 0.025 µg/mL (≈ 0.0531 µM) | 0.391 µg/mL (≈ 0.831 µM) | 0.195 µg/mL (≈ 0.414 µM) | 0.007 µg/mL (≈ 0.0149 µM) | 0.025 µg/mL (≈ 0.0531 µM) | 12.5 µg/mL (≈ 26.6 µM) | 0.049 µg/mL (≈ 0.104 µM) | 
5 | C[C@@H](O)[C@H]1C(=O)N2C(C(=O)O)=C(S[C@@H]3CN[C@H](C(=O)NCCS(=O)(=O)N4CCCC4)C3)[C@H](C)[C@H]12 [Compound 15] | 0.049 µg/mL (≈ 0.0948 µM) | 0.025 µg/mL (≈ 0.0484 µM) | 0.013 µg/mL (≈ 0.0252 µM) | 0.049 µg/mL (≈ 0.0948 µM) | 0.195 µg/mL (≈ 0.377 µM) | 0.098 µg/mL (≈ 0.19 µM) | 0.025 µg/mL (≈ 0.0484 µM) | 0.781 µg/mL (≈ 1.51 µM) | 0.391 µg/mL (≈ 0.757 µM) | 0.025 µg/mL (≈ 0.0484 µM) | 0.391 µg/mL (≈ 0.757 µM) | 0.049 µg/mL (≈ 0.0948 µM) | 0.025 µg/mL (≈ 0.0484 µM) | 0.195 µg/mL (≈ 0.377 µM) | 0.195 µg/mL (≈ 0.377 µM) | 0.007 µg/mL (≈ 0.0135 µM) | 0.025 µg/mL (≈ 0.0484 µM) | 12.5 µg/mL (≈ 24.2 µM) | 0.049 µg/mL (≈ 0.0948 µM) | 
